Reference: PubChem BioAssay (NCI)
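All cell lines were grown in 96-well plates and treated with compound for 48 hours. At the TGI there is no net growth.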

Assays:
Assay in all cases: DTP human tumour cell line panel, 48 h
[1] = system: HCT-15 colon
[2] = system: MDA-N
[3] = system: MDA-MB-231 breast
[4] = system: MCF7 breast
[5] = system: CCRF-CEM leukemia
[6] = system: M14 melanoma
[7] = system: LOX IMVI melanoma
[8] = system: OVCAR-8 ovarian
[9] = system: MALME-3M melanoma
[10] = system: NCI/ADR-RES ovarian
[11] = system: EKVX NSCLC
[12] = system: SR leukemia
[13] = system: UACC-62 melanoma
[14] = system: SF-295 CNS
[15] = system: OVCAR-4 ovarian
[16] = system: HCC-2998 colon
[17] = system: T-47D breast
[18] = system: OVCAR-5 ovarian
[19] = system: SW-620 colon
[20] = system: MOLT-4 leukemia
[21] = system: SK-OV-3 ovarian
[22] = system: K-562 leukemia
[23] = system: UO-31 renal
[24] = system: HOP-92 NSCLC
[25] = system: CAKI-1 renal
[26] = system: NCI-H23 lung
[27] = system: NCI-H460 lung
[28] = system: IGROV1 ovarian
[29] = system: OVCAR-3 ovarian
[30] = system: A498 renal
[31] = system: SF-539 CNS
[32] = system: TK-10 renal
[33] = system: RPMI-8226 leukemia
[34] = system: MDA-MB-435
[35] = system: SF-268 CNS
[36] = system: UACC-257 melanoma
[37] = system: HL-60(TB) leukemia
[38] = system: SK-MEL-5 melanoma
[39] = system: SNB-75 CNS
[40] = system: SNB-19 CNS
[41] = system: NCI-H226 lung
[42] = system: A549 NSCLC
[43] = system: HCT-116 colon
[44] = system: HS 578T breast
[45] = system: SK-MEL-28 melanoma
[46] = system: SN12C renal
[47] = system: HOP-62 NSCLC
[48] = system: COLO 205 colon
[49] = system: HT29 colon
[50] = system: KM12 colon
[51] = system: RXF 393 renal
[52] = system: DU-145 prostate
[53] = system: ACHN renal
[54] = system: U251 CNS
[55] = system: 786-0 renal
[56] = system: PC-3 prostate
[57] = system: NCI-H522 lung

Q: Which TGI [1] does the source give for `CCCCCc1c(Cl)nc(Cl)nc1Cl` here?
A: 29.9 µM

Q: And the TGI [2]?
A: 16.6 µM

Q: What about the TGI [3] of the same molecule?
A: 17.8 µM

Q: And the TGI [4]?
A: 27.3 µM

Q: What about the TGI [5] of the same molecule?
A: 0.65 µM

Q: And the TGI [6]?
A: 5.46 µM

Q: And the TGI [7]?
A: 6.01 µM

Q: And the TGI [8]?
A: 25.9 µM

Q: What about the TGI [9] of the same molecule?
A: 28.1 µM

Q: And the TGI [10]?
A: 46.3 µM

Q: And the TGI [11]?
A: 52 µM

Q: What about the TGI [12] of the same molecule?
A: 0.86 µM

Q: What about the TGI [13] of the same molecule?
A: 43.3 µM

Q: What about the TGI [14] of the same molecule?
A: 53.7 µM

Q: What about the TGI [15] of the same molecule?
A: 43 µM

Q: What about the TGI [16] of the same molecule?
A: 27 µM

Q: And the TGI [17]?
A: 52.2 µM

Q: And the TGI [18]?
A: 31.1 µM

Q: And the TGI [19]?
A: 26.2 µM

Q: And the TGI [20]?
A: 1.01 µM

Q: And the TGI [21]?
A: 31.8 µM

Q: What about the TGI [22] of the same molecule?
A: 7.45 µM

Q: What about the TGI [23] of the same molecule?
A: 37.9 µM

Q: What about the TGI [24] of the same molecule?
A: 15.3 µM

Q: And the TGI [25]?
A: 8.6 µM

Q: What about the TGI [26] of the same molecule?
A: 16 µM

Q: And the TGI [27]?
A: 51.9 µM

Q: And the TGI [28]?
A: 31.9 µM

Q: What about the TGI [29] of the same molecule?
A: 30.8 µM

Q: What about the TGI [30] of the same molecule?
A: 34.7 µM

Q: What about the TGI [31] of the same molecule?
A: 29.9 µM

Q: What about the TGI [32] of the same molecule?
A: 32.2 µM

Q: What about the TGI [33] of the same molecule?
A: 12.3 µM

Q: What about the TGI [34] of the same molecule?
A: 6.98 µM

Q: And the TGI [35]?
A: 49.2 µM

Q: And the TGI [36]?
A: 29.7 µM

Q: And the TGI [37]?
A: 5.93 µM

Q: And the TGI [38]?
A: 18.1 µM

Q: What about the TGI [39] of the same molecule?
A: 93.1 µM

Q: What about the TGI [40] of the same molecule?
A: 38.9 µM

Q: And the TGI [41]?
A: 6.02 µM

Q: What about the TGI [42] of the same molecule?
A: > 92.3 µM

Q: What about the TGI [43] of the same molecule?
A: 14.1 µM

Q: What about the TGI [44] of the same molecule?
A: > 100 µM

Q: What about the TGI [45] of the same molecule?
A: 46.5 µM

Q: And the TGI [46]?
A: 10.8 µM

Q: And the TGI [47]?
A: 39.7 µM

Q: And the TGI [48]?
A: 27 µM

Q: What about the TGI [49] of the same molecule?
A: 18.5 µM

Q: And the TGI [50]?
A: 28.6 µM

Q: And the TGI [51]?
A: 23.7 µM

Q: What about the TGI [52] of the same molecule?
A: 45.5 µM

Q: What about the TGI [53] of the same molecule?
A: 77.7 µM

Q: What about the TGI [54] of the same molecule?
A: 25.1 µM

Q: And the TGI [55]?
A: 12.8 µM

Q: What about the TGI [56] of the same molecule?
A: 36.9 µM

Q: And the TGI [57]?
A: 6.61 µM
